Reference: patent publication US10537610B1, “Peptide for inhibition of cancer” (priority 2018, dated 2020)
Like-named read-outs stand apart in the source and are kept apart here. Non-standard residues stand in square brackets, D forms with d. Residues, ends and D or L forms follow the SMILES beside them.

Key:
Format in all cases: cell-based, human
[1] = system: MCF-10A cells on HMEC-1 cells; experiment: Adhesion of non-tumorigenic MCF-10A cells to endothelial monolayer under static conditions; conditions: P4D 500 μM; TNF/IFN-treated HMEC-1
Procedure: The peptides were synthesized and purified by LifeTein, LLC (Somerset, N.J., USA) with the purity of not less than 95% using PeptideSyn™ technology that incorporates solid phase fluorenylmethyloxycarbonyl (Fmoc) chemistry. The cells were treated with the peptide P4D for 0, 1, 5, or 24 hours at a concentration of 500 μM. The cells treated with the Scrambled peptide P4D (Scr; 500 μM; 0, 1, 5, or 24 hours incubation time) were used as a negative control. In order to provide the positive control of the junctions tightening for impedance-based measurements of endothelial permeability, the cells were incubated with the potent activator of TJ assembly, forskolin (FSK; BioShop, Burlington, ON, Canada), for 24 hours at a concentration of 10 μM.
Adhesion of human breast cancer (MCF-7, MDA-MB-231) or non-tumorigenic (MCF-10A) human breast cells to HMEC-1 cells was performed in 24-well plates. HMEC-1 cells were seeded to the bottom of the fibronectin-coated wells 2 days before the assay to form the monolayer and subjected to a suitable treatment. Breast cancer or non-tumorigenic cells were starved overnight and on the day of the assay were labeled with CellTracker Green CMFDA Dye for 30 minutes. […] The adherent cells were lysed by 2% SDS and the fluorescence was measured using the Wallac 1420 VICTOR2 Multilabel Counter (PerkinElmer) at 492 nm of excitation and 517 nm of emission wavelengths.

[2] = system: HMEC-1 endothelial monolayer
Procedure: The cells were treated with the peptide P4D for 0, 1, 5, or 24 hours at a concentration of 500 μM. The cells treated with the Scrambled peptide P4D (Scr; 500 μM; 0, 1, 5, or 24 hours incubation time) were used as a negative control. In order to provide the positive control of the junctions tightening for impedance-based measurements of endothelial permeability, the cells were incubated with the potent activator of TJ assembly, forskolin (FSK; BioShop, Burlington, ON, Canada), for 24 hours at a concentration of 10 μM. Experiments based on impedance measurements were performed at Bionanopark, Ltd. (Lodz, Poland) with an ACEA xCELLigence® Real-Time Cell Analysis (RTCA) DP system (Roche, Mannheim, Germany) consisting of an RTCA DP instrument, a personal computer-based RTCA control unit and single-use electronic 16-well plates “E-Plate VIEW 16 PET”. All experiments were performed following the manufacturer's instructions. In brief, the gold-film electrodes deposited on the bottom of the “E-plate VIEW 16 PET” electrode arrays were equilibrated with MCDB 131 culture medium overnight. Subsequently, the medium was aspirated and replaced by a 100 μL of fresh medium for impedance background measurements. HMEC-1 cells were seeded at a density of 40,000 cells per well in MCDB 131 medium with supplements. After allowing cell sedimentation for 30 min at room temperature, plates were locked into the RTCA DP instrument for continuous recording of impedance changes at three different AC frequencies (10 kHz, 25 kHz, 50 kHz), which are expressed as Cell Index (CI) values. CI is a dimensionless parameter based on relative impedance changes referenced to the values of the cell-free electrode at each frequency: [formula] where N is the number of the frequency points at which the impedance was measured, whereas […] Rb(fi) are the frequency-dependent electrode resistances with cells present and without cells, respectively. Thus, CI is a quantitative measure of cell status in a well, including the cell number, cell viability, adhesion degree, and morphology. Although CI is measured at three frequencies, only the most sensitive readings are returned by the software as a function of time and reported as the final results. In general, CI values rise with increasing coverage of the electrode with cells, which is caused at an early stage by cell sedimentation and, later on, by cell proliferation. During the phase of logarithmic cell growth HMEC-1 cells were pretreated with cytokines (TNF/IFN) and after 24 hours subsequently treated with the tested compounds (Scr, P4D, or FSK). For some experiments, the cells were treated with the compounds 2 hours after the cytokines treatment. Alternatively, the compounds treatment was applied about 3 hours after HMEC-1 seeding and about 67 hours later was followed by the cytokines treatment. This experimental approach included additionally the sample designated as 'P4D & TNF/IFN' i.e. after the pretreatment with P4D the cells were subjected to the concurrent treatment with P4D and cytokines.

[3] = system: JAM-A; experiment: Western blot of JAM-A protein in HMEC-1 cells
Procedure: The cells were lysed with lysis buffer (1% Triton X-100 and 0.1% SDS in PBS) supplemented with Halt Protease Inhibitor Cocktail (Thermo Scientific, Waltham, Mass., USA). For the equalization between the samples before the semi-quantitative analyses the protein content of lysates was determined with the BCA Protein Assay Kit according to the manufacturer's protocol (Thermo Scientific). Cell lysate aliquots at a protein content of 50 μg per sample were boiled with 5× concentrated loading buffer (final concentrations: 50 mM Tris-HCl, pH 6.8, 8% glycerol, 2% SDS, 5% β-mercaptoethanol, 0.002% bromophenol blue), separated under reducing conditions on 4-20% gradient SDS-PAGE gels (Bio-Rad) and electroblotted (120 min, 200 mA, 4° C.) onto polyvinylidene difluoride (PVDF) membranes (Bio-Rad). The membranes were washed with Tris-buffered saline (TBS) and blocked for 2 hours with TBS containing 5% nonfat dry milk at room temperature. Then, the membranes were incubated overnight at 4° C. with an appropriate amount of primary antibody diluted in TBS containing 0.05% Tween 20 (TBST). The following primary antibodies were used: monoclonal rabbit anti-JAM-A (Abcam, Cambridge, UK) at a dilution of 1:500 and monoclonal mouse anti-GAPDH (R&D Systems, Minneapolis, Minn., USA) at a dilution of 1:1000. The membranes were washed several times with TBST and incubated for 1 hour at room temperature with the corresponding polyclonal anti-rabbit and anti-mouse HRP-conjugated secondary antibodies (Santa Cruz Biotechnology, Dallas, Tex., USA) at a 1:5000 dilution in TBST. Following the subsequent washes with TBST the membranes were further processed for chemiluminescent detection using Westar TiC ECL Substrate (Cyanagen, Bologna, Italy) and the images were documented by ChemiDoc MP Imager (Bio-Rad).

[4] = system: JAM-A mRNA; experiment: RT-PCR of JAM-A mRNA in HMEC-1 cells; conditions: Tβ4 200 nM or TGF-β1 10 ng/mL

Compound | adhesion of MCF-10A cells to cytokine-treated endothelium [1] | barrier-protecting effect (Cell Index) ([2]; P4D about 2.5 hours after plating plus second supplementary dose simultaneously with cytokines ('P4D & TNF/IFN')) | barrier-protecting effect (Cell Index) ([2]; P4D about 2.5 hours after plating, cytokines about 60 hours later, no supplementary dose) | barrier-strengthening effect relative to forskolin ([2]; applied ~24 hours after seeding, FSK 10 μM) | endothelial barrier function (Cell Index) ([2]; applied ~24 hours after seeding, compared to controls) | barrier-protecting effect (Cell Index) ([2]; compound applied 24 hours after treatment with inflammatory cytokines (TNF/IFN)) | level of JAM-A protein ([3]; Tβ4 200 nM or TGF-β1 10 ng/mL, 24-hours incubation) | action on JAM-A expression over incubation time ([3]; Tβ4 200 nM, 0, 2, 5, or 12 hours) | JAM-A expression on mRNA level [4]
CC(C)[C@H](NC(=O)[C@H](CO)NC(=O)[C@H](N)CCCCN)C(=O)N[C@H](C(=O)N[C@H](CCCNC(=N)N)C(=O)N[C@@H](CCC(=O)O)C(=O)N[C@@H](CC(=O)O)C(=O)N[C@H](C(=O)NCC(=O)N[C@H](C(=O)N[C@@H](Cc1ccc(O)cc1)C(=O)N[C@H](C(=O)N[C@@H](CS)C(N)=O)[C@@H](C)O)[C@@H](C)O)[C@@H](C)O)[C@@H](C)O [Peptide P4D, NH2-(dK)-SVT-(dR)-EDTGTYTC-CONH2] (H-[dK]SVT[dR]EDTGTYTC-NH2) | markedly inhibited | even more evident than that one of FSK | did not reveal any barrier-protecting properties | apparently weaker than that one of forskolin | slightly strengthened endothelial barrier function | did not reproduce the barrier-protecting effect of FSK | – | – | –
Thymosin β4 (SDKPDMAEIEKFDKSKLKKTETQEKNPLPSKETIEQEKQAGES; not fully specified; Thymosin beta-4; UniProt P62328 2-44, looked up) [Tβ4] | – | – | – | – | – | – | evidently reduced the level of JAM-A protein | time-dependent | no observed changes of JAM-A expression on mRNA level
